pIC50: −log10 of the molar value.
Experiments:
A2780 [1] = details: Homo sapiens, A2780, 48 h
A2780 [2] = assay: Resistant factor, ratio of IC50 for p-glycoprotein expressing drug-resistant human A2780AD cells to IC50 for human A2780 cells; assay type: functional
A2780 [3] = assay: cells; details: Homo sapiens, A2780, 48 h
Description: Cytotoxicity against human A2780 cells after 48 hrs by MTT assay

[4] = Induction of assembly of GTP-tubulin into microtubules assessed as critical concentration
[5] = Displacement of non-fluorescent ligand from paclitaxel binding site of microtubule

COc1cccc(C(=O)O[C@H]2[C@@H]3[C@]4(OC(C)=O)CO[C@@H]4C[C@H](OC(=O)[C@H](C)NC(=O)c4ccc(-c5c6cc(F)c(=O)cc-6oc6cc(O)c(F)cc56)c(C(=O)O)c4)[C@@]3(C)C(=O)[C@H](OC(C)=O)C3=C(C)[C@@H](OC(=O)[C@H](O)[C@@H](NC(=O)c4ccccc4)c4ccccc4)C[C@]2(O)C3(C)C)c1
pIC50 (A2780 [1]): 5.14 | Ratio IC50 (A2780 [2]): 26.4 | pIC50 (A2780 [3]): 6.57 | Activity [4]: 2.17 µM

C/C=C(\C)C(=O)N[C@@H](c1ccccc1)[C@@H](O)C(=O)O[C@H]1C[C@@]2(O)[C@@H](OC(=O)c3cccc(N=[N+]=[N-])c3)[C@@H]3[C@]4(OC(C)=O)CO[C@@H]4C[C@H](OC(=O)[C@H](C)NC(=O)c4ccc(-c5c6ccc(=O)cc-6oc6cc(O)ccc56)c(C(=O)O)c4)[C@@]3(C)C(=O)[C@H](OC(C)=O)C(=C1C)C2(C)C
pIC50 (A2780 [1]): < 4.70 | Ratio IC50 (A2780 [2]): >91 | pIC50 (A2780 [3]): 6.66 | Activity [4]: 2.45 µM

COc1cccc(C(=O)O[C@H]2[C@@H]3[C@]4(OC(C)=O)CO[C@@H]4C[C@H](OC(=O)[C@H](C)NC(=O)c4ccc(-c5c6ccc(=O)cc-6oc6cc(O)ccc56)c(C(=O)O)c4)[C@@]3(C)C(=O)[C@H](OC(C)=O)C3=C(C)[C@@H](OC(=O)[C@H](O)[C@@H](NC(=O)c4ccccc4)c4ccccc4)C[C@]2(O)C3(C)C)c1
pIC50 (A2780 [1]): 6.15 | Ratio IC50 (A2780 [2]): 36.7 | pIC50 (A2780 [3]): 7.71 | Activity [4]: 2.26 µM

C/C(=C\c1csc(C)n1)[C@@H]1C[C@@H]2O[C@]2(C)CCC[C@H](C)[C@H](O)[C@@H](C)C(=O)C(C)(C)[C@@H](O)CC(=O)O1
Ka [5]: 7.5 ×10⁸ /M

CC(=O)O[C@@]12CO[C@@H]1C[C@H](O)[C@@]1(C)C(=O)[C@H](O)C3=C(C)[C@@H](OC(=O)[C@H](O)[C@@H](NC(=O)OC(C)(C)C)c4ccccc4)C[C@@](O)([C@@H](OC(=O)c4ccccc4)[C@H]21)C3(C)C.O.O.O [DOCETAXEL]
pIC50 (A2780 [1]): 6.54 | Ratio IC50 (A2780 [2]): 483 | pIC50 (A2780 [3]): 9.22 | Activity [4]: 2.5 µM

CC(=O)O[C@H]1C(=O)[C@]2(C)[C@@H](OC(=O)[C@H](C)NC(=O)c3ccc(-c4c5ccc(=O)cc-5oc5cc(O)ccc45)c(C(=O)O)c3)C[C@H]3OC[C@@]3(OC(C)=O)[C@H]2[C@H](OC(=O)c2ccccc2)[C@]2(O)C[C@H](OC(=O)[C@H](O)[C@@H](NC(=O)c3ccccc3)c3ccccc3)C(C)=C1C2(C)C [FLUTAX 1]
pIC50 (A2780 [1]): < 4.70 | Ratio IC50 (A2780 [2]): >78 | pIC50 (A2780 [3]): 6.59 | Activity [4]: 3.84 µM

CC(=O)O[C@H]1C(=O)[C@]2(C)[C@@H](OC(=O)[C@H](C)NC(=O)c3ccc(-c4c5cc(F)c(=O)cc-5oc5cc(O)c(F)cc45)c(C(=O)O)c3)C[C@H]3OC[C@@]3(OC(C)=O)[C@H]2[C@H](OC(=O)c2ccccc2)[C@]2(O)C[C@H](OC(=O)[C@H](O)[C@@H](NC(=O)c3ccccc3)c3ccccc3)C(C)=C1C2(C)C [FLUTAX 2]
pIC50 (A2780 [1]): < 4.70 | Ratio IC50 (A2780 [2]): >25 | pIC50 (A2780 [3]): 6.10 | Activity [4]: 3.22 µM

CC(=O)O[C@H]1C(=O)[C@@]2(C)[C@H]([C@H](OC(=O)c3ccccc3)[C@]3(O)C[C@H](OC(=O)[C@H](O)[C@@H](NC(=O)c4ccccc4)c4ccccc4)C(C)=C1C3(C)C)[C@]1(OC(C)=O)CO[C@@H]1C[C@@H]2O [PACLITAXEL]
pIC50 (A2780 [3]): 8.89 | Activity [4]: 4.23 µM

Reference: ChEMBL document CHEMBL1143357, “Synthesis and biological activities of high affinity taxane-based fluorescent probes” (Bioorg Med Chem Lett, 2009)
